Usually CC50 stands for the concentration that lowers cell viability or growth by half. By pEC50 is commonly meant −log10 of the EC50, conventionally taken in molar units.

From ChEMBL document CHEMBL1149373, “Computer-aided design of non-nucleoside inhibitors of HIV-1 reverse transcriptase” (Bioorg Med Chem Lett, 2006) come the findings set out here.

In experiment [1] the test system is Human immunodeficiency virus 1. Description: Antiviral activity against wild-type HIV1 in MT2 cells by MTT assay. It counts as functional, organism-based. Conditions: for pEC50: Human immunodeficiency virus 1, MT2, read-out: EC50; call rule not given here.
In another experiment the test system is MT2. Description: Cytotoxicity against MT2 cells. It counts as functional. Conditions: Homo sapiens.

SMILES strings stand for the structures. pEC50: −log10 of the molar value.

On to `CC(C)=CCOc1cc(Nc2ccccn2)ccc1C#N`, for which, in experiment [1], the EC50 entry is reported as “Not Active”. In addition, half-maximal cytotoxicity in the experiment with MT2 (CC50) was put at 0.29 µM.
In the experiment on MT2, `CC(C)=CCOc1cc(Nc2nccc(N)n2)ccc1Cl` showed a CC50 of 0.5 µM.
For `CC(C)=CCOc1cc(Nc2ncccn2)ccc1C#N`, the EC50 entry in experiment [1] was “Not Active”. The compound also gave a half-maximal cytotoxic concentration (CC50) in the experiment on MT2 of less than 0.2 µM.
On to `CCc1ccc(Nc2nccs2)cc1OCC=C(C)C`, for which the pEC50 in experiment [1] was 5.30. Moreover, the 50% cytotoxic concentration (CC50) with MT2 was found to be 31 µM.
Regarding `CC(C)=CCOc1cc(Nc2nccs2)ccc1C`, the negative-log EC50 (pEC50) in experiment [1] is 5.52. The compound also returned a CC50 with MT2 of 17 µM.
Take `CC(C)=CCOc1cc(Nc2nccc(C(F)(F)F)n2)ccc1Cl`: in experiment [1], the pEC50 was 7.19. Moreover, in the experiment on MT2, the midpoint of cytotoxicity, the CC50, lay at 2.5 µM.
Turning to `CCCc1ccc(Nc2nccs2)cc1OCC=C(C)C`, the negative logarithm of the EC50 (pEC50) in experiment [1] was 4.64. For the same compound, in the experiment on MT2, half-maximal cytotoxicity (CC50) was put at 23 µM.
`CC(C)=CCOc1cc(Nc2ccccn2)ccc1C`: the EC50 entry in experiment [1] is given as “Not Active”. This compound gave a 50% cytotoxic concentration (CC50) with MT2 of 35 µM.
For the compound `CC(C)=CCOc1cc(Nc2nccs2)ccc1C(C)C`, the EC50 entry in experiment [1] is “Not Active”. In addition, half-maximal cytotoxicity in the experiment with MT2 (CC50) was put at 31 µM.
`CC(C)=CCOc1cc(Nc2ncccn2)ccc1Cl`: the 50% cytotoxic concentration (CC50) in the experiment on MT2 turned out to be 2.5 µM.
Regarding `CC(C)=CCOc1cccc(Nc2ncccn2)c1`, the pEC50 in experiment [1] is 4.52. For the same compound, in the experiment with MT2, the CC50 is more than 100 µM.
For `CC(C)=CCOc1cc(Nc2ncccn2)ccc1C` the same measures were 5.55 and 78 µM.
Take `CC(C)=CCOc1cc(Nc2nccs2)ccc1Cl`: the negative logarithm of the EC50 (pEC50) in experiment [1] is 6.52. In addition, it took 26 µM to reach half-maximal cytotoxicity in the experiment with MT2 (CC50).
With `CC(C)=CCOc1cc(Nc2nccc(C)n2)ccc1Cl`, the EC50 result in experiment [1] is “Not Active”. The half-maximal cytotoxic concentration (CC50) in the experiment on MT2 is less than 0.2 µM.
As for `CC(C)=CCOc1cccc(Nc2nccs2)c1`, in experiment [1], the pEC50 is 5.00. Further, the CC50 in the experiment with MT2 worked out at 23 µM.
With `COc1ccc(Nc2nccs2)cc1OCC=C(C)C`, the pEC50 in experiment [1] is 5.42. Besides, the CC50 in the experiment with MT2 worked out at 42 µM.
`COc1ccnc(Nc2ccc(Cl)c(OCC=C(C)C)c2)n1` showed a CC50 in the experiment with MT2 of 9 µM.
For the compound `CC(C)=CCOc1cc(Nc2nccs2)ccc1C#N`, in experiment [1], the pEC50 is 6.68. Also, the 50% cytotoxic concentration (CC50) in the experiment on MT2 worked out at 0.5 µM.
In turn, `CC(C)=CCOc1cc(Nc2ccccn2)ccc1Cl` came in with a CC50 with MT2 of 15 µM.
Take `CSc1ccnc(Nc2ccc(Cl)c(OCC=C(C)C)c2)n1`: in the experiment with MT2, the 50% cytotoxic concentration (CC50) came out at 2.8 µM.
On to `Cc1cc(C#N)cc(C)c1Oc1nc(Nc2ccc(C#N)cc2)nc(N)c1Br` [ETRAVIRINE], for which the pEC50 in experiment [1] was more than 8.70. The compound further gave a CC50 with MT2 of more than 1 µM.
In turn, `Cc1ccnc2c1NC(=O)c1cccnc1N2C1CC1` [NEVIRAPINE] registered a CC50 in the experiment on MT2 of more than 10 µM.
`Cc1cn([C@H]2C=C[C@@H](CO)O2)c(=O)[nH]c1=O` [STAVUDINE]: in experiment [1], the negative-log EC50 (pEC50) is 5.52. Also, the half-maximal cytotoxic concentration (CC50) in the experiment with MT2 was more than 100 µM.
With `CC(C)=CCOc1cc(NC(=S)c2ccoc2C)ccc1Cl` [UC 781], the pEC50 in experiment [1] was 8.70. For the same compound, the half-maximal cytotoxic concentration (CC50) with MT2 was more than 100 µM.
